Measured values as given in PMC11947619, “Molecular mechanism of Mad2 conformational conversion promoted by the Mad2‐interaction motif of Cdc20” (Protein Science : A Publication of the Protein Society, 2025).

Columns and labels:
[1] = biological target: T1, O‐Mad2^R133A (Homo sapiens, UniProt Q13257, R133A); settings: 100 μM O-Mad2^R133A, two-fold molar excess peptide, 25°C, 20 mM HEPES pH 7.0, 100 mM NaCl, 1 mM TCEP, 5% D2O; Trp75/Trp167 indole NH reporters; 12 min per spectrum; ref Fischer et al., [2022]; cited from earlier work
T1 construct: unable to collect equivalent data for full‐length O‐Mad2^R133A; His6-DoubleStrep-TEV (N); made in house
Protocol: In contrast, conversion took ~24 h in the absence of Cdc20^MIM‐111‐138 peptide (Fischer et al., [2022]) (Figures 2c and ...

[2] = system: C‐Mad2; test: NMR chemical shift perturbations of C-Mad2 by Cdc20 residues 138–152; assay type: binding, human; settings: inferred from small CSPs, spectra of C-Mad2:Cdc20^MIM-123-152 vs C-Mad2:Cdc20^MIM-123-137, and lack of cryo-EM structural information
Protocol: FIGURE 3 Mad2 conversion rates with different Cdc20^MIM peptides. (a) Schematic of human Cdc20. Box1: Box1 motif; C1: C‐box motif; K1: KEN box motif; MIM: Mad2‐interacting motif, residues 123–137; WD40: WD40 domain, residues 182–480; IR: IR tail. (b) Mad2 conversion in the presence of different Cdc20^MIM peptides. Mad2 conversion was traced at 25°C and the changes in the first 30 min are shown. A black tick indicates where conversion is considered complete. NMR data for O‐Mad2^R133A with Cdc20^MIM‐111‐138 shown for comparison are from Fischer et al. ([2022]). (c) The Cdc20^MIM‐138‐152‐binding site was identified by comparing the spectra of C‐Mad2:Cdc20^MIM‐123‐137 with C‐Mad2:Cdc20^MIM‐123‐152 (boxed in b) and analyzing their CSPs (Figure S8e,f). The Cdc20^MIM‐138‐152‐binding site (blue) is mapped onto the structure of C‐Mad2:Cdc20 from the cryo‐EM structure of the APC/C:MCC complex (PDB 6TLJ) (Alfieri et al., [2016], Alfieri et al., [2020]). The O‐Mad2 structural model is superimposed onto the C‐Mad2 structure for comparison. Cdc20 residues 138–152 are in yellow and residues 126–138 are in green. The β7/β8 hairpin in O‐Mad2 (red) blocks both the binding sites for Cdc20 residues 126–138 and residues 138–152. (d) As in c except the β7/β8 hairpin in O‐Mad2 is removed to expose the Cdc20 binding sites. […] (f) Cdc20^MIM‐123‐152 was titrated into Mad2^∆β7/β8 and its binding was analyzed by NMR. […]

T1 sequence (Q13257 whole entry R133A): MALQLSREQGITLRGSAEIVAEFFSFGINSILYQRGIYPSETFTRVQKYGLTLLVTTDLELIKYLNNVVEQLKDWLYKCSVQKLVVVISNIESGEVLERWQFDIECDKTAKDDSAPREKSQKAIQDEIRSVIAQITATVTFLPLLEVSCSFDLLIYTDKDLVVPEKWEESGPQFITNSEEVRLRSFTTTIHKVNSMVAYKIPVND

| Sequence | time to complete Mad2 conversion [1] | association with C-Mad2, in words [2] |
| --- | --- | --- |
| EHQKAWALNLNGFDVEEAKILRLSGKPQ [Cdc20^MIM‐111‐138, Cdc20^MIM peptide spanning Cdc20 residues 111–138] | less than 30 min |  |
| QNAPEGYQNRLKVLY [Cdc20^MIM‐138‐152, peptide of Cdc20 residues 138–152] |  | only weakly associated with C‐Mad2 |
